According to US11938110B2, “Use of verapamil for the treatment of SARS-Cov-2 induced COVID-19” (priority 2020, dated 2024):
Structures can show the parent of a compound that is named as a salt.

What was measured:
[1] = test system: COVID-19 patients with hypertension; conditions: oral administration; cited from earlier work
[2] = test system: SARS-COV-2 (USA-WA1/2020); conditions: Huh7 cells, MOI 0.1, 6.25, 12.5, 25 and 50 uM, compared to DMSO, 48 hours after infection
[3] = test system: Huh7 cells
[4] = test system: patients with Chronic obstructive pulmonary disease (COPD); conditions: nasal spray

## CCOC(=O)C1=C(COCCN)NC(C)=C(C(=O)OC)C1c1ccccc1Cl (stereo not shown) [amlodipine besylate]
[1]
  case fatality rate of patients with hypertension: distinctly reduced

## COc1ccc(CCN(C)CCCC(C#N)(c2ccc(OC)c(OC)c2)C(C)C)cc1OC (stereo not shown) [verapamil hydrochloride]
[2]
  viral RNA in the supernatant: dose-dependent reduction
[3]
  toxicity against Huh7 cells: no significant toxicity
[4]
  blood oxygen pressure: improved
  correction of blood pH: improved
[4]; after inhalation
  oxygen saturation after inhalation: 95.75±14.57
[4]; baseline
  oxygen saturation before inhalation: 91.2±12.15
